{"source": "PubChem BioAssay (NCI)", "experiment_in_all_cases": "NCI anticancer screen, dose series, 48 h", "key": {"EKVX NSCLC": {"system": "EKVX NSCLC"}, "OVCAR-5 ovarian": {"system": "OVCAR-5 ovarian"}, "SF-539 CNS": {"system": "SF-539 CNS"}, "RXF 393 renal": {"system": "RXF 393 renal"}, "UACC-257 melanoma": {"system": "UACC-257 melanoma"}, "BT-549 breast": {"system": "BT-549 breast"}, "NCI-H23 lung": {"system": "NCI-H23 lung"}, "SF-295 CNS": {"system": "SF-295 CNS"}, "KM12 colon": {"system": "KM12 colon"}, "A498 renal": {"system": "A498 renal"}, "HL-60(TB) leukemia": {"system": "HL-60(TB) leukemia"}, "NCI-H522 lung": {"system": "NCI-H522 lung"}, "OVCAR-4 ovarian": {"system": "OVCAR-4 ovarian"}, "PC-3 prostate": {"system": "PC-3 prostate"}, "MOLT-4 leukemia": {"system": "MOLT-4 leukemia"}, "IGROV1 ovarian": {"system": "IGROV1 ovarian"}, "786-0 renal": {"system": "786-0 renal"}, "MCF7 breast": {"system": "MCF7 breast"}, "CCRF-CEM leukemia": {"system": "CCRF-CEM leukemia"}, "NCI-H460 lung": {"system": "NCI-H460 lung"}, "ACHN renal": {"system": "ACHN renal"}, "MDA-MB-231 breast": {"system": "MDA-MB-231 breast"}, "RPMI-8226 leukemia": {"system": "RPMI-8226 leukemia"}, "DU-145 prostate": {"system": "DU-145 prostate"}, "HOP-62 NSCLC": {"system": "HOP-62 NSCLC"}, "SK-MEL-5 melanoma": {"system": "SK-MEL-5 melanoma"}, "SK-MEL-2 melanoma": {"system": "SK-MEL-2 melanoma"}, "CAKI-1 renal": {"system": "CAKI-1 renal"}, "UO-31 renal": {"system": "UO-31 renal"}}, "note": "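Protocol summary: plate cells (96-well), add compound at 5 concentrations, incubate 48 h, interpolate endpoints linearly. GI50: concentration for 50% inhibition of growth. TGI: concentration producing complete growth inhibition.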"}
{"smiles": "CC(=O)Oc1ccccc1C(=O)Nc1cc(C(C)C)ccc1C", "values": [{"measurement": "GI50", "setting": "EKVX NSCLC", "value": 3.94, "unit": "µM"}, {"measurement": "TGI", "setting": "EKVX NSCLC", "value": 30, "unit": "µM"}, {"measurement": "GI50", "setting": "OVCAR-5 ovarian", "value": 20.4, "unit": "µM"}, {"measurement": "TGI", "setting": "OVCAR-5 ovarian", "value": "> 100", "unit": "µM"}, {"measurement": "GI50", "setting": "SF-539 CNS", "value": 4.61, "unit": "µM"}, {"measurement": "TGI", "setting": "SF-539 CNS", "value": 19, "unit": "µM"}, {"measurement": "GI50", "setting": "RXF 393 renal", "value": 2.55, "unit": "µM"}, {"measurement": "TGI", "setting": "RXF 393 renal", "value": 9.78, "unit": "µM"}, {"measurement": "GI50", "setting": "UACC-257 melanoma", "value": 4.33, "unit": "µM"}, {"measurement": "TGI", "setting": "UACC-257 melanoma", "value": 33, "unit": "µM"}, {"measurement": "GI50", "setting": "BT-549 breast", "value": 2.63, "unit": "µM"}, {"measurement": "TGI", "setting": "BT-549 breast", "value": 8.34, "unit": "µM"}, {"measurement": "GI50", "setting": "NCI-H23 lung", "value": 2.71, "unit": "µM"}, {"measurement": "TGI", "setting": "NCI-H23 lung", "value": 9.84, "unit": "µM"}, {"measurement": "GI50", "setting": "SF-295 CNS", "value": 4.46, "unit": "µM"}, {"measurement": "TGI", "setting": "SF-295 CNS", "value": 18.8, "unit": "µM"}, {"measurement": "GI50", "setting": "KM12 colon", "value": 4.61, "unit": "µM"}, {"measurement": "TGI", "setting": "KM12 colon", "value": 32.3, "unit": "µM"}, {"measurement": "GI50", "setting": "A498 renal", "value": 5.22, "unit": "µM"}, {"measurement": "TGI", "setting": "A498 renal", "value": 33.8, "unit": "µM"}, {"measurement": "GI50", "setting": "HL-60(TB) leukemia", "value": 4.66, "unit": "µM"}, {"measurement": "TGI", "setting": "HL-60(TB) leukemia", "value": 38.3, "unit": "µM"}, {"measurement": "GI50", "setting": "NCI-H522 lung", "value": 2.34, "unit": "µM"}, {"measurement": "TGI", "setting": "NCI-H522 lung", "value": 7.86, "unit": "µM"}, {"measurement": "GI50", "setting": "OVCAR-4 ovarian", "value": 3.44, "unit": "µM"}, {"measurement": "TGI", "setting": "OVCAR-4 ovarian", "value": "> 100", "unit": "µM"}, {"measurement": "GI50", "setting": "PC-3 prostate", "value": 4.31, "unit": "µM"}, {"measurement": "TGI", "setting": "PC-3 prostate", "value": 56.8, "unit": "µM"}, {"measurement": "GI50", "setting": "MOLT-4 leukemia", "value": 4.2, "unit": "µM"}, {"measurement": "TGI", "setting": "MOLT-4 leukemia", "value": 29.7, "unit": "µM"}, {"measurement": "GI50", "setting": "IGROV1 ovarian", "value": 4.44, "unit": "µM"}, {"measurement": "TGI", "setting": "IGROV1 ovarian", "value": 45.7, "unit": "µM"}, {"measurement": "GI50", "setting": "786-0 renal", "value": 5.92, "unit": "µM"}, {"measurement": "TGI", "setting": "786-0 renal", "value": 26.6, "unit": "µM"}, {"measurement": "GI50", "setting": "MCF7 breast", "value": 3.83, "unit": "µM"}, {"measurement": "TGI", "setting": "MCF7 breast", "value": 42.2, "unit": "µM"}, {"measurement": "GI50", "setting": "CCRF-CEM leukemia", "value": 6.19, "unit": "µM"}, {"measurement": "TGI", "setting": "CCRF-CEM leukemia", "value": "> 100", "unit": "µM"}, {"measurement": "GI50", "setting": "NCI-H460 lung", "value": 3.99, "unit": "µM"}, {"measurement": "TGI", "setting": "NCI-H460 lung", "value": "> 100", "unit": "µM"}, {"measurement": "GI50", "setting": "ACHN renal", "value": 4.43, "unit": "µM"}, {"measurement": "TGI", "setting": "ACHN renal", "value": 51.1, "unit": "µM"}, {"measurement": "GI50", "setting": "MDA-MB-231 breast", "value": 9.92, "unit": "µM"}, {"measurement": "TGI", "setting": "MDA-MB-231 breast", "value": 50.4, "unit": "µM"}, {"measurement": "GI50", "setting": "RPMI-8226 leukemia", "value": 3.9, "unit": "µM"}, {"measurement": "TGI", "setting": "RPMI-8226 leukemia", "value": "> 100", "unit": "µM"}, {"measurement": "GI50", "setting": "DU-145 prostate", "value": 8.38, "unit": "µM"}, {"measurement": "TGI", "setting": "DU-145 prostate", "value": "> 100", "unit": "µM"}, {"measurement": "GI50", "setting": "HOP-62 NSCLC", "value": 11.2, "unit": "µM"}, {"measurement": "TGI", "setting": "HOP-62 NSCLC", "value": 44.9, "unit": "µM"}, {"measurement": "GI50", "setting": "SK-MEL-5 melanoma", "value": 2.27, "unit": "µM"}, {"measurement": "TGI", "setting": "SK-MEL-5 melanoma", "value": 5.74, "unit": "µM"}, {"measurement": "GI50", "setting": "SK-MEL-2 melanoma", "value": 3.1, "unit": "µM"}, {"measurement": "TGI", "setting": "SK-MEL-2 melanoma", "value": 12.2, "unit": "µM"}, {"measurement": "GI50", "setting": "CAKI-1 renal", "value": 4.5, "unit": "µM"}, {"measurement": "TGI", "setting": "CAKI-1 renal", "value": 27.9, "unit": "µM"}, {"measurement": "GI50", "setting": "UO-31 renal", "value": 2.93, "unit": "µM"}, {"measurement": "TGI", "setting": "UO-31 renal", "value": 11.7, "unit": "µM"}]}
